The target in one assay is CFTR (Homo sapiens, UniProt P13569). Nature of the assay: Ussing Chamber Electrophysiology Assay of CFTR Potentiation in CF Bronchial Epithelial Cells. Type of assay: cell-based. The settings on record: primary CF hBE cells, short-circuit current, scaled to DMSO (0%) and positive control potentiator (100%). The source says: Ussing Chamber Electrophysiology Assay of CFTR Potentiation in CF Bronchial Epithelial Cells
Primary cystic fibrosis human bronchial epithelial (CF hBE) cells were expanded and cultured according to published methods (Neuberger et al., Ch. 4 of Cystic Fibrosis, Methods in Molecular Biology vol. 741, pp. 39-54 (2011)). Well-differentiated cells (>30 days at air/liquid interface) on Snapwell filters (Corning Costar, cat. no. 3801) were mounted in Ussing chambers (Physiologic Instruments, Inc., San Diego, Calif.). F508del/F508del cultures were assayed at 27° C. and G551D/F508del cells were assayed at 35° C. HEPES buffered physiological saline (composition (in mM): 137 NaCl, 4 KCl, 1 MgCl2, 1.8 CaCl2, 10 HEPES Na) was used in both apical and basolateral chambers. Chambers were bubbled with air to promote mixing and the voltage was clamped to zero. Amiloride (30 uM), forskolin (10 uM), test compound (4 increasing concentrations), and CFTRinh-172 (20 uM) were added sequentially with 20-25 minutes between additions. Short-circuit currents were acquired and analyzed using LabScribe2. Test compound responses were scaled relative to responses for DMSO (0%) and the maximal response of a positive control potentiator (100%).

For the next assay, the target named is F508del V470 CFTR (Homo sapiens, UniProt P13569, DEL508-508). Nature of the assay: FRT Ion Flux Assay of F508del CFTR Potentiation. Type of assay: cell-based. As to conditions: FRT cells expressing F508del V470 CFTR and halide-sensitive YFP, forskolin 20 uM, 30 min. As for the experimental part: FRT Ion Flux Assay of F508del CFTR Potentiation
Sequence of F508del V470 CFTR (P13569 with tags, fused parts or gaps DEL508-508): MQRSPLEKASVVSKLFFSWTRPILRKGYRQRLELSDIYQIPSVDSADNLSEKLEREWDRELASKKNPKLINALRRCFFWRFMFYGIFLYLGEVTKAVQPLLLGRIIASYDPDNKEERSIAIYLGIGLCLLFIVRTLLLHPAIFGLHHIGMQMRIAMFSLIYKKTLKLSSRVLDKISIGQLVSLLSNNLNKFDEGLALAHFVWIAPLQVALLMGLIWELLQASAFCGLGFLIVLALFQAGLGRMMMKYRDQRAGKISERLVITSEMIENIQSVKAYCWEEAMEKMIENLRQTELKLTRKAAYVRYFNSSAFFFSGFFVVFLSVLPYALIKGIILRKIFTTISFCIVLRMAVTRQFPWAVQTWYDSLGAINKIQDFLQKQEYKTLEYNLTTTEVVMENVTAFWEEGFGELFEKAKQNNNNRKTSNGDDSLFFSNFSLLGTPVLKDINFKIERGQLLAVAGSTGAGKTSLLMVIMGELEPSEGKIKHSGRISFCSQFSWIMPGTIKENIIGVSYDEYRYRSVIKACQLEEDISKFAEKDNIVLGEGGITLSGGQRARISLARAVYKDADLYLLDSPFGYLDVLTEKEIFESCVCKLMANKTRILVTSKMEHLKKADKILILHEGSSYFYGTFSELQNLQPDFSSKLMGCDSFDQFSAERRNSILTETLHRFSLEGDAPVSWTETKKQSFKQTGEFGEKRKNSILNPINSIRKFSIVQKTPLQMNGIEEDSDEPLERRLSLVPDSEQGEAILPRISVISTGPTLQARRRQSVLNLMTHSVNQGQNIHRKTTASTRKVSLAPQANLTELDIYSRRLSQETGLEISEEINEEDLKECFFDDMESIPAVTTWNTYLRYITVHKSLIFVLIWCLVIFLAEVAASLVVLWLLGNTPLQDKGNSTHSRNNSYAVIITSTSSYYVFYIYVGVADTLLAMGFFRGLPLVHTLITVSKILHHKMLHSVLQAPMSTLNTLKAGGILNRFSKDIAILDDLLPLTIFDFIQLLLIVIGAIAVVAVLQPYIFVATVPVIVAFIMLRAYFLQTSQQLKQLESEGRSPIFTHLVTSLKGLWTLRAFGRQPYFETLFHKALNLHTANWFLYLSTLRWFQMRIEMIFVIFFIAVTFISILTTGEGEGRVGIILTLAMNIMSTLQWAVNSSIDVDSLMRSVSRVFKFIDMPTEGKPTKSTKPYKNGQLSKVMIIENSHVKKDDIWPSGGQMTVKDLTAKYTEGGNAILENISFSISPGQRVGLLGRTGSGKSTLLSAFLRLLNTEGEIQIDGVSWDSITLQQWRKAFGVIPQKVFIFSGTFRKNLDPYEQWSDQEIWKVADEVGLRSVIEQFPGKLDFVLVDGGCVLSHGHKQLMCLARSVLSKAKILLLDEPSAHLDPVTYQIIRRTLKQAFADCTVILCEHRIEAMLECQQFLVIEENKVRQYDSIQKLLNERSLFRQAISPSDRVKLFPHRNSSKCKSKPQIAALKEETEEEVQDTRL
Fischer rat thyroid (FRT) cell lines stably expressing recombinant F508del V470 CFTR and halide-sensitive yellow fluorescent protein (Pedemonte et al., J. Clin. Invest. 115(9) 2564-71 (2005)) were seeded at 25,000 cells/well in 50 uL/well of culture medium into black-walled, clear bottom tissue-culture-treated 384-well plates (Corning, cat. no. 3712). After one day, the cells were pre-incubated at 27° C./5% CO2 for 16-24 hours. The cells were then washed with dPBS and treated with forskolin (20 uM) and test compound for 30 min by addition of 20 uL of compound dilution buffer (dPBS containing forskolin and test compound). Plates were loaded into FLIPR384 fluorescence imaging plate reader (Molecular Devices). After an initial fluorescence reading, iodide buffer (25 uL) (composition (in mM): 137 NaI, 1.5 K2PO4, 8.1 NaH2PO4, 2.7 KCl, 0.5 MgCl2, 1 CaCl2) was added and a second fluorescence reading was made after approximately 21 seconds. Data treatment involved division of the second fluorescence reading by the initial fluorescence reading, then scaling of the resulting normalized endpoint fluorescence with respect to the responses for DMSO (0%) and a positive control potentiator (100%).

This is an account of results in patent publication US10131670B2, “Bicyclic heteroaryl derivatives as CFTR potentiators” (CYSTIC FIBROSIS FOUNDATION THERAPEUTICS, INC., priority 2016, dated 2018).

One may read the EC50 as the concentration needed to bring the measured effect to its halfway point.

The structures appear in SMILES notation. Counter-ions that a name gives are not always drawn.

As to `CCC(c1cn(-c2ccccc2F)nn1)c1cc(-c2cnc(C(F)(F)F)nc2)c2c(N)ncnn12` (centres unmarked) [Example 82, 7-{1-[1-(2-fluorophenyl)-1H-1,2,3-triazol-4-yl]propyl}-5-[2-(trifluoromethyl)pyrimidin-5-yl]pyrrolo[2,1-f][1,2,4]triazin-4-amine], the 50% effective concentration (EC50) worked out at 4.93 nM at CFTR and 5.83 nM at F508del V470 CFTR.
Taken in the same sequence, the figures for `CCC(c1cn(-c2ccccc2F)nn1)c1cc(-c2cncnc2OC)c2c(N)ncnn12` (single isomer, unassigned) [Example 66, 7-{1-[1-(2-fluorophenyl)-1H-1,2,3-triazol-4-yl]propyl}-5-(4-methoxypyrimidin-5-yl)pyrrolo[2,1-f][1,2,4]triazin-4-amine] were 123 nM and 524 nM.
Taken in the same sequence, the figures for `CCC(c1cn(-c2cc(F)ccc2F)nn1)c1c(C#N)c(-c2cnc(C(F)(F)F)nc2)c2c(N)ncnn12` (single isomer, unassigned) [Example 8, 4-amino-7-{1-[1-(2,5-difluorophenyl)-1H-1,2,3-triazol-4-yl]propyl}-5-[2-(trifluoromethyl)pyrimidin-5-yl]pyrrolo[2,1-f][1,2,4]triazine-6-carbonitrile] were 13 nM and 17.2 nM.
Taken in the same sequence, the figures for `CCC(c1cn(-c2ccccc2)nn1)n1nc(-c2cnc(C(F)(F)F)nc2)c2c(N)ncnc21` (single isomer, unassigned) [Example 94, 1-[1-(1-phenyl-1H-1,2,3-triazol-4-yl)propyl]-3-[2-(trifluoromethyl)pyrimidin-5-yl]-1H-pyrazolo[3,4-d]pyrimidin-4-amine] were 74.4 nM and 50.3 nM.
Take `CC(c1cc(-c2ccccc2F)no1)c1c(C#N)c(-c2cnc(C(F)(F)F)nc2)c2c(N)ncnn12` (single isomer, unassigned) [Example 18, 4-amino-7-{1-[3-(2-fluorophenyl)-1,2-oxazol-5-yl]ethyl}-5-[2-(trifluoromethyl)pyrimidin-5-yl]pyrrolo[2,1-f][1,2,4]triazine-6-carbonitrile]: the results for the concentration for a half-maximal effect (EC50) on CFTR and at F508del V470 CFTR were 1.67 nM and 3.1 nM, respectively.
Taken in the same sequence, the figures for `CC(c1cc(-c2ccccc2F)no1)c1c(C#N)c(-c2cnc(C(F)(F)F)nc2)c2c(N)ncnn12` (single isomer, unassigned) [Example 19, 4-amino-7-{1-[3-(2-fluorophenyl)-1,2-oxazol-5-yl]ethyl}-5-[2-(trifluoromethyl)pyrimidin-5-yl]pyrrolo[2,1-f][1,2,4]triazine-6-carbonitrile] were 5 nM and 13.8 nM.
Taken in the same sequence, the figures for `CCC(c1cn(-c2cc(F)ccc2F)nn1)c1cc(-c2cnc(C(F)(F)F)nc2)c2c(N)ncnn12` (single isomer, unassigned) [Example 61, 7-{1-[1-(2,5-difluorophenyl)-1H-1,2,3-triazol-4-yl]propyl}-5-[2-(trifluoromethyl)pyrimidin-5-yl]pyrrolo[2,1-f][1,2,4]triazin-4-amine] were 73.7 nM and 253 nM.
Taken in the same sequence, the figures for `N#Cc1c(-c2cnc(C(F)(F)F)nc2)c2c(N)ncnn2c1Cc1cn(-c2ccccc2F)nn1` [Example 22, 4-amino-7-{[1-(2-fluorophenyl)-1H-1,2,3-triazol-4-yl]methyl}-5-[2-(trifluoromethyl)pyrimidin-5-yl]pyrrolo[2,1-f][1,2,4]triazine-6-carbonitrile] were 27.1 nM and 23.3 nM.
Take `CCC(c1cn(-c2ccc(F)c(F)c2)nn1)c1cc(-c2cnc(C(F)(F)F)nc2)c2c(N)ncnn12` (single isomer, unassigned) [Example 64, 7-{1-[1-(3,4-difluorophenyl)-1H-1,2,3-triazol-4-yl]propyl}-5-[2-(trifluoromethyl)pyrimidin-5-yl]pyrrolo[2,1-f][1,2,4]triazin-4-amine]: the figures for the 50% effective concentration (EC50) on CFTR and on F508del V470 CFTR were 177 nM and 479 nM, respectively.
With `CCC(c1cnn(C(C)C)c1)c1c(C#N)c(-c2cnc(C(F)(F)F)nc2)c2c(N)ncnn12` (single isomer, unassigned) [Example 10, 4-amino-7-{1-[1-(propan-2-yl)-1H-pyrazol-4-yl]propyl}-5-[2-(trifluoromethyl)pyrimidin-5-yl]pyrrolo[2,1-f][1,2,4]triazine-6-carbonitrile], the EC50 on CFTR is 48 nM; on F508del V470 CFTR it was 95.9 nM.
For `CCC(c1cnn(-c2ccccc2F)c1)n1nc(-c2cnc(C(F)(F)F)nc2)c2c(N)ncnc21` (single isomer, unassigned) [Example 88, 1-{1-[1-(2-fluorophenyl)-1H-pyrazol-4-yl]propyl}-3-[2-(trifluoromethyl)pyrimidin-5-yl]-1H-pyrazolo[3,4-d]pyrimidin-4-amine], the EC50 at CFTR was 31 nM; on F508del V470 CFTR it was 78.8 nM.
Consider `CCC(c1cnn(-c2ccccc2F)c1)c1c(C#N)c(-c2cnc(C(F)(F)F)nc2)c2c(N)ncnn12` (single isomer, unassigned) [Example 15, 4-amino-7-{1-[1-(2-fluorophenyl)-1H-pyrazol-4-yl]propyl}-5-[2-(trifluoromethyl)pyrimidin-5-yl]pyrrolo[2,1-f][1,2,4]triazine-6-carbonitrile], for which the concentration for a half-maximal effect (EC50) at CFTR amounted to 0.2 nM; at F508del V470 CFTR, 0.56 nM.
`CC(c1cn(-c2ccc(F)cc2F)nn1)c1cc(-c2cnc(C(F)(F)F)nc2)c2c(N)ncnn12` (single isomer, unassigned) [Example 55, 7-{1-[1-(2,4-difluorophenyl)-1H-1,2,3-triazol-4-yl]ethyl}-5-[2-(trifluoromethyl)pyrimidin-5-yl]pyrrolo[2,1-f][1,2,4]triazin-4-amine]: the values for the EC50 at CFTR and at F508del V470 CFTR were 225 nM and 266 nM, respectively.
For `CC(c1cn(-c2ccccc2F)nn1)c1cc(-c2cnc(C(F)(F)F)nc2)c2c(N)ncnn12` (single isomer, unassigned) [Example 53, 7-{1-[1-(2-fluorophenyl)-1H-1,2,3-triazol-4-yl]ethyl}-5-[2-(trifluoromethyl)pyrimidin-5-yl]pyrrolo[2,1-f][1,2,4]triazin-4-amine] the same measures were 171 nM and 76.4 nM.
For `CCC(c1cn(-c2ccc(F)cc2F)nn1)c1c(C#N)c(-c2cnc(C(F)(F)F)nc2)c2c(N)ncnn12` (single isomer, unassigned) [Example 6, 4-amino-7-{1-[1-(2,4-difluorophenyl)-1H-1,2,3-triazol-4-yl]propyl}-5-[2-(trifluoromethyl)pyrimidin-5-yl]pyrrolo[2,1-f][1,2,4]triazine-6-carbonitrile] the same measures were 5.48 nM and 5.05 nM.
For the compound `CC(c1cn(-c2ccccc2F)nn1)c1c(C#N)c(-c2cnc(C(F)(F)F)nc2)c2c(N)ncnn12` (single isomer, unassigned) [Example 2, 4-amino-7-{1-[1-(2-fluorophenyl)-1H-1,2,3-triazol-4-yl]ethyl}-5-[2-(trifluoromethyl)pyrimidin-5-yl]pyrrolo[2,1-f][1,2,4]triazine-6-carbonitrile], the EC50 on CFTR stood at 11.2 nM; on F508del V470 CFTR, 9.14 nM.
For `CCC(c1cnn(C(C)C)c1)c1c(C#N)c(-c2cnc(C(F)(F)F)nc2)c2c(N)ncnn12` (single isomer, unassigned) [Example 11, 4-amino-7-{1-[1-(propan-2-yl)-1H-pyrazol-4-yl]propyl}-5-[2-(trifluoromethyl)pyrimidin-5-yl]pyrrolo[2,1-f][1,2,4]triazine-6-carbonitrile] the same measures were 6.96 nM and 4.17 nM.
For the compound `Nc1ncnn2c(Cc3cn(-c4ccccc4F)nn3)nc(-c3ccc(Cl)cc3)c12` [Example 93, 5-(4-Chlorophenyl)-7-{[1-(2-fluorophenyl)-1H-1,2,3-triazol-4-yl]methyl}imidazo[5,1-f][1,2,4]triazin-4-amine trifluoroacetate], the EC50 at CFTR was 116 nM; at F508del V470 CFTR, 54.4 nM.
For `CCC(c1cn(-c2ccccc2F)nn1)c1cc(-c2cnc(C(F)(F)F)nc2)c2c(N)ncnn12` (single isomer, unassigned) [Example 57, 7-{1-[1-(2-fluorophenyl)-1H-1,2,3-triazol-4-yl]propyl}-5-[2-(trifluoromethyl)pyrimidin-5-yl]pyrrolo[2,1-f][1,2,4]triazin-4-amine] the same measures were 2 nM and 1.88 nM.
